In PMC10221469 (Viruses, 2023):
Like-named read-outs stand apart in the source and are kept apart here.

Legend:
SARS-CoV-2 nsp13 = SARS-CoV-2 nsp13 (Severe acute respiratory syndrome coronavirus 2, UniProt P0DTD1); assay: biochemical; conditions: 1 nM nsp13, 1 mM ATP, 15 min at 37 °C; unit printed in b45 only; read-out: IC50 nsp13 helicase unwinding activity
SARS-CoV-2 [1] = assay: qPCR readout of viral replication in Vero E6 cells; type: cell-based; conditions: Severe acute respiratory syndrome coronavirus 2, Vero C1008, viral replication by qPCR
serine protease TMPRSS2 = target: T1, serine protease TMPRSS2 (Homo sapiens, UniProt O15393); assay: TMPRSS2 inhibition (Axxam S.p.A. proprietary assay); type: biochemical
T1 construct: Axxam S.p.A. (assay provider)
T1 sequence (O15393 whole entry): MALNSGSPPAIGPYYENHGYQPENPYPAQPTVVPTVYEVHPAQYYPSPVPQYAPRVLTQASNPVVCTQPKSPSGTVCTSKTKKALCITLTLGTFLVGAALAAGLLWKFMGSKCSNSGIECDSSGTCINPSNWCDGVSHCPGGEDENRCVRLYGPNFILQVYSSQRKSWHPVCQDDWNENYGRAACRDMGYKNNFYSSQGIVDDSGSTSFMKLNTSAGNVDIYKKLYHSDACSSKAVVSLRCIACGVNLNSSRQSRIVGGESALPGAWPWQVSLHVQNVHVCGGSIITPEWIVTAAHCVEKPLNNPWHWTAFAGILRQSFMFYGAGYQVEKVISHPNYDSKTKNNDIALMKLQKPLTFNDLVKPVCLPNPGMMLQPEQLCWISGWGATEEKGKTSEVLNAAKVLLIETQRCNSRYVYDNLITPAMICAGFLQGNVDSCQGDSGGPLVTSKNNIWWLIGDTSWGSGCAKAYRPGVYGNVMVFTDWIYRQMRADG

SARS-CoV-2 [2] = assay: microbe, parasite or virus in culture; type: cell-based; conditions: for IC50: read-out: IC50 (anti-viral activity)
in vitro [3] = conditions: human, CC50, A549 ACE2+ cells, 48 h, CellTiter-Glo
in vitro [4] = conditions: african green monkey
SARS-CoV-2 [5] = assay: microbe, parasite or virus in culture; type: cell-based; conditions: Severe acute respiratory syndrome coronavirus 2, Vero C1008; read-out: CPE IC50
SARS-CoV-2 [6] = assay: microbe, parasite or virus in culture; type: cell-based; conditions: Severe acute respiratory syndrome coronavirus 2, A549 ACE2+ cells, 48 h p.i., read-out: inhibition of viral titer (plaque reduction)
A549 ACE2+ cells = conditions: 48 h, CellTiter-Glo
[7] = Severe acute respiratory syndrome coronavirus 2, A549-ACE2, 48 h
[8] = ratio of CC50 over IC50, A549 ACE2+ cells

Row | SMILES | IC50 (SARS-CoV-2 nsp13) [nM] | IC50 (SARS-CoV-2 [1]) [nM] | IC50 (serine protease TMPRSS2) [nM] | IC50 (SARS-CoV-2 [2]; [7]) [nM] | SI (selectivity index) (SARS-CoV-2 [2]; [8]) | CC50 (in vitro [3]) [nM] | CC50 (in vitro [4]) [nM] | IC50 (SARS-CoV-2 [5]) [nM] | inhibition at 0.009 µM (SARS-CoV-2 [6]; 0.009 µM) [%] | inhibition at 0.019 µM (SARS-CoV-2 [6]) [%] | inhibition at 0.039 µM (SARS-CoV-2 [6]) [%] | SI (selectivity index) (SARS-CoV-2 [2]) | inhibition at 1.25 µM (SARS-CoV-2 [6]; 1.25 µM) [%] | inhibition at 2.5 µM (SARS-CoV-2 [6]; 2.5 µM) [%] | CC50 (A549 ACE2+ cells) [nM] | IC50 (SARS-CoV-2 [2]) [nM]
1 | COc1cc(NCc2ccc3nc(N)nc(N)c3c2C)cc(OC)c1OC [Trimetrexate] | 1560 | 80 | > 30000 | 7 | 1.4 | 10 | > 33000 | 340 | 86 | 97.5 | 96.5 | – | – | – | – | –
2 | C#CCC(Cc1cnc2nc(N)nc(N)c2n1)c1ccc(C(=O)N[C@@H](CCC(=O)O)C(=O)O)cc1 (stereo partly drawn) [Pralatrexate] | 140 | 80 | 450 | 4 | – | 8 | > 33000 | 50 | – | 90.4 | 96.5 | 2 | – | – | – | –
3 | Cc1nc2ccc(CN(C)c3ccc(C(=O)N[C@@H](CCC(=O)O)C(=O)O)s3)cc2c(=O)[nH]1 [Raltitrexed] | 3220 | – | – | – | 0.2 | 890 | – | – | – | – | – | – | – | – | – | –
4 | CN(Cc1cnc2nc(N)nc(N)c2n1)c1ccc(C(=O)N[C@@H](CCC(=O)O)C(=O)O)cc1 [Methotrexate hydrate] | 2030 | 440 | > 30000 | 630 | – | 1180 | > 33000 | 2810 | – | – | – | – | 94 | 98 | – | –
5 | Nc1nc(N)c2nc(CNc3ccc(C(=O)N[C@@H](CCC(=O)O)C(=O)O)cc3)cnc2n1 [Aminopterin] | 2590 | 80 | – | > 1500 | – | > 2000 | > 33000 | 330 | – | – | – | 1.9 | – | – | 2490 | 1300
6 | CCC(CC)COC(=O)[C@H](C)N[P@](=O)(OC[C@H]1O[C@@](C#N)(c2ccc3c(N)ncnn23)[C@H](O)[C@@H]1O)Oc1ccccc1 [Remdesivir] | – | 3200 | – | – | – | – | > 33000 | 2740 | – | – | – | – | – | – | – | –
7 | Nc1nc2[nH]cc(CCc3ccc(C(=O)N[C@@H](CCC(=O)O)C(=O)O)cc3)c2c(=O)[nH]1 [Pemetrexed disodium heptahydrate] | – | – | – | – | – | > 2000 | – | – | – | – | – | – | – | – | 2430 | 5000
